Data set [1] deals with Tomato (Ikram cultivar). The data set can be described thus: EGO10 collar combined with auxin spray on tomato. In kind it is in vivo, Solanum lycopersicum. The protocol:
The effect of EGO 10 combined with auxin was tested. […] Collar was applied 50 μM of EGO10 (FIG. 32) with a auxin daily spray (IAA) 5 ppm on the shoot tip. Also treatment with only the 50 μM collar of EGO10, an IAA treatment with no collar as a control for the auxin treatment and a control with no treatment were applied. Each treatment consisted of 10-12 plants, blocks of 4 plants were randomly distributed in the greenhouse.

The subject of data set [2] is Roses (Rosa Hybrida). The data set can be described thus: EGO10 collar application to roses. Type of data set: in vivo. The protocol: Three replicates on experiments were done in two commercial plots. EGO10 was applied at the indicated concentrations as a collar in Eppendorf tube (FIG. 24).
HPC+glycerin and EGO10 (25 or 50 μM), provided in rigid tubes, were applied as described above (Example 13) to roses (Rosa hybrid golden gate). 20 days following application of the formulation by the delivery device, the length of axillary buds (in centimeters) was measured and the number of lateral buds was counted.

Data set [3] relates to olive seedlings. As to the kind of experiment: Application via rigid tubes to olive seedlings under commercial nursery conditions. Type of data set: in vivo, Olea europaea L. The conditions noted are these: 50 μM with HPC+glycerin. How it is done:
Experiments were performed in AGROGOLD nurseries under commercial nursery conditions, which include nethouse, 40% shed without temperature control. The tested formulations were applied in rigid tubes. […] The tube was sealed and fixed to the plant by cello tape. The tube was completely filled with ˜1 ml of the experimental formulation and then the top was covered with cotton (FIGS. 20A-20F). Each experiment included 10 olive plants for each treatment. The number of wake up buds was counted 75 days following application and the seedlings architecture, general growth and development were examined.
The bud growth effect of EGO10 (50 μM) or acetone control, each supplied together with HPC+glycerin on the stem of the olive cuttings was tested under the nursery conditions.

Data set [4] relates to olive seedling. The data set can be described thus: Application to olive seedling stem under greenhouse conditions (parafilm, flexible or rigid tubes). Particulars: rigid tubes. How it is done: EGO10 either with PVAc, or HPC+glycerin were applied on olive seedling stem by the use of parafilm cover as the apparatus, under greenhouse conditions (FIG. 15). Greenhouse conditions include controlled room temperature of 25° C. In each experiment, 10 plants were used for each treatment. The substances were applied on the stem by a spatula and covered with parafilm.
In attempt to improve the performance of the apparatus, different substances and different cover were used. Four formulations were developed and tested. These formulations are based on polysaccharide-sorbent-humidifier substances while the main difference between them is the viscosity of the final product and the ability to retain and release of the active ingredient (EGO 10). […] The cover consisted of a flexible plastic tube that was cut (FIG. 16A), placed on the seedling stem (FIG. 16B) and wrapped with transparent plaster (FIG. 16C). The plastic tubes were filled with the experimental material (FIG. 16D). Moist cotton was placed on both sides of the tubes to minimize water evaporation (FIG. 16E and FIG. 16F). Bud outgrowth was measured for 30 days.
Rigid plastic tubes were tested in order to determine their efficiency as a delivery device for application of the hormone formulations to plants. At first, eppendorf tubes served as prototype. The tubes ware cut from top to bottom and placed on the stem of seedlings. Each tube was sealed with a small moist cotton at the bottom, filled with 1 ml of the examined material and finally covered with transparent plastic tape (FIGS. 17A-17E). The tubes were filled with (HPC+glycerin), or PVAc and EGO10 In each experiment, 10 plants were used for each treatment. Greenhouse conditions include controlled room temperature of 25° C.
EGO10 (10 μM) or acetone control together with HPC+glycerin or PVAc were applied on the stem of olive cuttings by the use of rigid plastic tubes as described in Example 10 above.
Bud outgrowth of olive cuttings was measured until day 30.

Data set [5] deals with Pomegranate. The data set can be described thus: EGO10 collar application to pomegranate in commercial nursery. Type of data set: in vivo, Punica granatum. Particulars: 50 μM as collar in Eppendorf tubes. The protocol:
(§1) Two replicates on experiments were performed in commercial nursery.

Data set [6] deals with Almond. The data set can be described thus: EGO10 granules and collar application to almond in commercial nursery. Type of data set: in vivo, Prunus dulcis. How it is done:
as §1

For the compound `CC1=C[C@H](O/C=C2\Cc3c(n(C)c4ccccc34)C2=O)OC1=O` [EGO10], the “bud outgrowth above the collar” value in data set [1] (50 μM collar only) is “more moderate and not consistent respond”; in data set [1] (50 μM collar with auxin (IAA) daily spray 5 ppm) it was “clear inhibition of bud outgrowth”. In addition, the lateral branching entry in data set [2] (25 or 50 μM with HPC+glycerin, collar in rigid tubes, 20 days) was “clear tendency of reduction of lateral branching”. Moreover, in data set [2] (collar, 25 or 50 μM), the “development of water branches” value is on record as “did not hinder development”. The “application site (bark and vascular system) after removal of the apparatus” value in data set [3] is “unharmed and functional”. Moreover, the seedling outgrowth result in data set [3] (75 days) was “not inhibited”. For the same compound, the “number of wake up buds (bud outgrowth)” value in data set [3] (rigid tubes, 75 days, vs acetone+HPC+glycerin) was “inhibits bud outgrowth significantly”. The plant architecture result in data set [3] (control seedlings bushy) is given as “one or two leading branches”. Also, the plant growth result in data set [4] (10 μM with HPC+glycerin, greenhouse) is “without delaying plant growth”. The bud outgrowth entry is “some inhibition of bud outgrowth” in data set [4] (10 μM with HPC+glycerin, greenhouse, 30 days, not significantly different from control) and “significantly inhibits bud outgrowth” in data set [4] (50 μM with HPC+glycerin, until day 30, vs acetone+HPC+glycerin). Further, the “growth of treated olive buds” value in data set [4] (50 μM with HPC+glycerin) is “grew properly”. Further, the “number of axillary branches” value in data set [5] was “marked and significant reduction in the number of axillary branches”; in data set [6] (3×10^−8 M as granules of controlled release), “marked and significant reduction in the number of axillary branches”; in data set [6] (both granules and collar), “reduced the inhibitory effect of the granules on side branches”.
